The results in this text go back to US5965743A, “N-substituted imidazol derivative” (Nippon Soda Co., Ltd., priority 1994, dated 1999).

The structures appear in SMILES notation. Read-outs that look alike come from different tables or passages of the source.

Assay [1] deals with biosynthesis of cholesterol. Description: Inhibitory effect on biosynthesis of cholesterol in cell-free biosystem. The conditions noted are these: cell-free rat liver enzyme system, 90 min, 37° C., pH 7.4; read-out: 50% Inhibitory Concentration (IC50), cholesterol biosynthesis. It counts as biochemical, rat (SD-strain). Here is the method: Inhibitory Effect on Biosynthesis of Cholesterol in Cell-free Biosystem
(1) Preparation of Enzyme Reaction System
(§1) The preparation of the enzymatic system for the biosynthesis of cholesterol in rats was carried out according to the method described in Biochimica et Biophysica Acta, Vol.486, pp 70-81, 1977.
(§2) More particularly, SD-strain female rats weighing from […] were fed for 7 to 10 days with a diet containing 2% cholestyramine to enhance their biosynthetic activity of cholesterol. After killed the rats by means of depletion of blood in midnight, the livers thereof were removed and homogenized with a double volume of 0.1 M potassium phosphate buffer solution (pH 7.4) containing 15 mM nicotine amide and 2 mM magnesium chloride by using a loose fitting-type teflon homogenizer. The supernatant obtained by centrifuging the homogenate at 12,000×g for 30 min. was further centrifuged at 105,000×g for 90 min., thereby separating it to the microsome fraction and the supernatant fraction. The supernatant obtained were kept as the fraction resulting in the precipitation in 40-80% ammonium sulfate (hereinafter referred to as "soluble fraction"). Each of the soluble fraction and the microsome fraction were independently adjusted with 0.1 M potassium phosphate buffer solution (pH 7.4) to the volumes of 1 ml/g of liver and 1 ml/3 g of liver, respectively, and were kept and used in the subsequent tests as an enzyme solution for the mixing ratio of 16:1.
(2) Method for Measuring Cholesterol Biosynthesis Activity
(§3) Cholesterol biosynthesis activity was measured according to the method described in Biochimica Biophysica Acta, Vol.486, pp 70-81, 1977. 2 μl dimethylsulfoxide solution of the test compound were added to a solution composed of 50 μl of the enzyme solution prepared in (1) described above, 0.1 M potassium phosphate buffer solution (pH 7.4), 1 mM ATP, 5 mM glucose-1-phosphate, 6 mM glutathione, 6 mM magnesium chloride, 0.04 mM coenzyme A, 0.25 mM NAD, 0.25 mM NADP and 1 mM 2-^14 C-sodium acetate (111 MBq./mmol), and the resultant solution was adjusted to the whole volume of 0.2 ml and then allowed to a reaction for 90 min. at 37° C. while shaking. The reaction was then stopped by adding 1 ml of 15% ethanol solution of potassium hydroxide, and the solution was then heated for 1 hour at 75° C. After extracted unsaponificated products with hexane from the solution, the solution was then condensed and dried to the hard state and subsequently dissolved in small volume of a mixture of chloroform and methanol (mixing ratio; 1:2). The resultant chloroform-methanol solution was spotted on a pre-coated silica gel TLC plate, then developed with a developer composed of benzene and ethyl acetate (mixing ratio; 9:1). The cholesterol spot was then taken out from the plate, and the radient activity of the spot was measured by using a liquid scintillation counter. Based on the radio-activity measured, mthe 50% inhibitory concentration (IC50) of the compounds of the present invention were determined.

The target of assay [2] is T1, squalene-2,3-oxide cyclase (Rattus norvegicus, UniProt P48450).
T1 sequence (P48450 2-733): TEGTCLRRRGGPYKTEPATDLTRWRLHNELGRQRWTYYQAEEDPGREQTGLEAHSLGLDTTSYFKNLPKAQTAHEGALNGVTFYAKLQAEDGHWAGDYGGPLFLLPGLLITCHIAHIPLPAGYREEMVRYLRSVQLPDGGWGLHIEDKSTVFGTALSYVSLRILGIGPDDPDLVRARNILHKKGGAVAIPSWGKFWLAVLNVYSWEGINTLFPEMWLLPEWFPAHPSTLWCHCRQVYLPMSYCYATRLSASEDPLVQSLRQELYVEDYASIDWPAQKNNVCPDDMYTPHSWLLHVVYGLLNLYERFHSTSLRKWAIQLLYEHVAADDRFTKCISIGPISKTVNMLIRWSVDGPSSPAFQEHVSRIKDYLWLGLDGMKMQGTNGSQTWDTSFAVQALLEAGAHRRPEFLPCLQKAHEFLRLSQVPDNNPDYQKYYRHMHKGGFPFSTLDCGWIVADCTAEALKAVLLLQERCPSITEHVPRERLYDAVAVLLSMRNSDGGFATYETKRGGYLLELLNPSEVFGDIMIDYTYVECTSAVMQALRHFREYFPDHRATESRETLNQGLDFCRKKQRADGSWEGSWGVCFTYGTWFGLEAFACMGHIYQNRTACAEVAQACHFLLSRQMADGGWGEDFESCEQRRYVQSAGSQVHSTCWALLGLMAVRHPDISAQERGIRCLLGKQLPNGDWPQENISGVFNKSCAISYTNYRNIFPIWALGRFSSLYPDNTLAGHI
Kind of assay: Sterol amount synthesized in cell-free cholesterol biosynthesis system (squalene-2,3-epoxide accumulation). Conditions: average of 6 results. It counts as biochemical, rat (SD-strain). On the procedure:
as §1, §2, §3
On the other hand, after determining the position of ^14 C-squalene-2,3-epoxide on the TLC, which was produced due to the action of AMO 1618 (Calbiochem, USA), a squalene-2,3-oxidecyclase inhibitor, the spot containing squalene-2,3-epoxide […] was taken out and the radio-activity thereof was then determined by using a liquid scintillation counter.

Assay [3] relates to Triton WR-1339-Induced Hyperlipemia Mice. Description: Effect on serum lipid in Triton WR-1339-induced hyperlipemia mice. Format: in vivo, mouse (Crj:ICR-strain). The conditions noted are these: Mus musculus, po (3 x 33.3 mg/kg), average of 10 animals, 24 hours. On the procedure: For this test, Crj:ICR-strain male mice aged 7-9 weeks were provided. […] After 24 hours, blood sampling was performed for each mouse from the abdominal aorta under anesthesia with ether, and the collected blood were placed into plastic test tubes being placed with a blood separating agent beforehand, then after 30 min. or 1 hour, the blood sampled was centrifuged at 10,000 rpm to obtain the serum. Total cholesterol value, HDL cholesterol value and total triglyceride value in the serum were respectively measured by using the measuring kits and automatic biochemical analyser.

Another assay has as its system cholesterol biosynthesis. Description: In vivo inhibition test on cholesterol biosynthesis in mice. Details: species or system mouse (Crj:ICR-strain). Conditions: n = 5, 30 mg/kg oral; for 14C-Cholesterol in serum: control group 3783 (for 1-71), 5694 (for 2-64, 2-71, 2-72); for Inhibition Rate on cholesterol biosynthesis: vs control group. Here is the method:
In Vivo Inhibition Test on Cholesterol Biosynthesis
For this test, Crj:ICR-strain male mice aged 7-9 weeks were provided. The mice were fed with a diet containing 2% cholestyramine for 7 to 10 days under reversed lighting condition, namely the mice were placed in dark condition during 7:00 AM to 7:00 PM. Each of the test compounds was dissolved or suspended in either distillated water or 1% aqueous solution of poly(oxyethylene) curing castor oil and was orally administrated to the mice at a dose of 30 mg/kg at 10:30 AM, respectively. After 1 hour following to the administration of the test compound, the mice were intraperitoneally administrated with ^14 C-sodium acetate at a dose of 5 μCi/0.5 ml/mouse, respectively. After 2 hours, blood sampling was performed for each mouse from the abdominal aorta under anesthesia with ether and the blood sampled were placed into plastic test tubes being placed with blood separating agent beforehand to separate the serum, respectively. Each 0.5 ml of the serum was then added with 1 ml of 20% ethanol solution of potassium hydroxide and heated for 3 hours at 75° C. After extracting the unsponified substance with n-hexane, the serum was condensed to the dry hard state and dissolved in small amount of a mixed solution of chloroform and methanol (mixing ratio; 1:2). The resultant chloroform-methanol solution was then spotted on pre-coated silica gel TLC and developed with a mixed solution of benzene and ethyl acetate (mixing ratio; 9:1). The cholesterol spot was then taken out and the radio-activity thereof was measured by using a liquid scintillation counter. Based on the radio-activity measured, the inhibition rate on cholesterol biosynthesis were determined respectively for the compounds of the present invention.

The mark [4] stands for this setting: read-out: % Change of Serum Lipid to Control Group: HDL Cholesterole.
Setting [5] is: read-out: % Change of Serum Lipid to Control Group: Total Cholesterole.
Setting [6] is: read-out: % Change of Serum Lipid to Control Group: Total glyceride.

Take `c1ccc(CCCNc2ccc(-n3ccnc3)cc2)cc1` [Compound 1-17]: the IC50 in assay [1] was 1.5 µM. The “Sterol Amount Synthesized: Squalene-2,3-epoxide” value in assay [2] (1 μM, control 2125 (Test 1, 1-17), 953 (Test 2, 2-47)) is 3238 dpm/90min/Assay; in assay [2] (3 μM, control 2125 (Test 1, 1-17), 953 (Test 2, 2-47)), 2102 dpm/90min/Assay; in assay [2] (10 μM, control 2125 (Test 1, 1-17), 953 (Test 2, 2-47)), 7382 dpm/90min/Assay; in assay [2] (30 μM, control 2125 (Test 1, 1-17), 953 (Test 2, 2-47)), 10914 dpm/90min/Assay; in assay [2] (100 μM, control 2125 (Test 1)), 12736 dpm/90min/Assay. For the same compound, the “Sterol Amount Synthesized: Cholesterol” value amounted to 15297 dpm/90min/Assay in assay [2] (1 μM, control 15448 (Test 1, 1-17), 9453 (Test 2, 2-47)); 8938 dpm/90min/Assay in assay [2] (3 μM, control 15448 (Test 1, 1-17), 9453 (Test 2, 2-47)); 6364 dpm/90min/Assay in assay [2] (10 μM, control 15448 (Test 1, 1-17), 9453 (Test 2, 2-47)); 3558 dpm/90min/Assay in assay [2] (30 μM, control 15448 (Test 1, 1-17), 9453 (Test 2, 2-47)); 1830 dpm/90min/Assay in assay [2] (100 μM, control 15448 (Test 1)). The “Sterol Amount Synthesized: Total Amount Synthesized” value came to 72069 dpm/90min/Assay in assay [2] (1 μM, control 85102 (Test 1, 1-17), 53622 (Test 2, 2-47)); 82446 dpm/90min/Assay in assay [2] (3 μM, control 85102 (Test 1, 1-17), 53622 (Test 2, 2-47)); 79733 dpm/90min/Assay in assay [2] (10 μM, control 85102 (Test 1, 1-17), 53622 (Test 2, 2-47)); 95990 dpm/90min/Assay in assay [2] (30 μM, control 85102 (Test 1, 1-17), 53622 (Test 2, 2-47)); 77489 dpm/90min/Assay in assay [2] (100 μM, control 85102 (Test 1)). The results for the change in vivo at 100 mg/kg in assay [3] (setting [4]), in assay [3] (setting [5]) and in assay [3] (setting [6]) were 78%, -29% and -46%, respectively.
Regarding `O=S(=O)(CCCOc1ccc(-n2ccnc2)cc1)c1ccccc1` [Compound 1-71], the IC50 in assay [1] is 2.4 µM. For the same compound, the change in vivo at 100 mg/kg is 82% in assay [3] (setting [4]), -23% in assay [3] (setting [5]) and -20% in assay [3] (setting [6]). This compound also showed a 14C-Cholesterol in serum in the assay on cholesterol biosynthesis of 575 dpm/1 ml Serum. For the same compound, the “Inhibition Rate on cholesterol biosynthesis” value (“Inhibition Rate” below) in the assay with cholesterol biosynthesis turned out to be 85%.
`c1ccc(SCCCOc2ccc(Cn3ccnc3)cc2)cc1` [Compound 2-64, 1-[4-(3-phenylthiopropyloxy)benzyl]imidazole]: the IC50 in assay [1] was 6 µM. Also, in the assay with cholesterol biosynthesis, the 14C-Cholesterol in serum is listed as 460 dpm/1 ml Serum and the “Inhibition Rate” value worked out at 92%.
As for `O=S(=O)(CCCOc1ccc(Cn2ccnc2)cc1)c1ccccc1` [Compound 2-71], the change in vivo at 100 mg/kg was 60% in assay [3] (setting [4]), -30% in assay [3] (setting [5]) and -21% in assay [3] (setting [6]). The 14C-Cholesterol in serum in the assay on cholesterol biosynthesis worked out at 73 dpm/1 ml Serum. Further, the “Inhibition Rate” value in the assay on cholesterol biosynthesis is 99%.
Turning to `c1ccc(OCCCOc2ccc(Cn3ccnc3)cc2)cc1` [Compound 2-72], the IC50 in assay [1] was found to be 6 µM. In addition, the values for the change in vivo at 100 mg/kg in assay [3] (setting [4]), in assay [3] (setting [5]) and in assay [3] (setting [6]) were 28%, -21% and -29%, respectively. The same compound yielded a 14C-Cholesterol in serum in the assay with cholesterol biosynthesis of 3980 dpm/1 ml Serum. In the assay on cholesterol biosynthesis, the “Inhibition Rate” value was determined as 30%.
